In US20230116602A1, “MCL1 INHIBITORS AND USES THEREOF” (California Institute of Technology, priority 2019, published 2023):

Experiments:
[1] = molecular target: MCL1 (Homo sapiens, UniProt Q07820); test: MCL1 affinity assay (competition binding, qPCR readout); conditions: recombinant MCL1, 11-point 3-fold dilution series
Procedure: Recombinant MCL1, BCL2 and BCXL proteins were prepared in either an E. coli host derived from the BL21 strain or in HEK-293 cells. The recombinant proteins were subsequently tagged with DNA for qPCR detection. Streptavidin-coated magnetic beads were treated for 30 minutes at room temperature with the respective biotinylated peptide ligands for each recombinant protein to generate affinity resins for the assays. The liganded beads were blocked with excess biotin and washed with blocking buffer (SeaBlock (Pierce), 1% BSA, 0.05% Tween 20, 1 mM DTT) to remove unbound ligand and to reduce nonspecific binding. Binding reactions were assembled by combining recombinant protein, liganded affinity beads, and test compounds in 1× binding buffer (20% SeaBlock, 0.17×PBS, 0.05% Tween 20, 6 mM DTT). Test compounds were prepared as 111X stocks in 100% DMSO. The compounds were then diluted directly into the assays such that the final concentration of DMSO was 0.9%. The assay plates were incubated at room temperature with shaking for 1 hour and the affinity beads were washed with wash buffer (1×PBS, 0.05% Tween 20). The beads were then re-suspended in elution buffer (1×PBS, 0.05% Tween 20, 0.5 μM non-biotinylated affinity ligand) and incubated at room temperature with shaking for 30 minutes. The recombinant protein concentration in the eluates was measured by qPCR. Kds were determined using an 11-point 3-fold compound dilution series with three DMSO control points.

[2] = system: drug-sensitive cell lines of Table 3; test: Cell line growth retardation assay, sensitive cohort; assay type: cell-based, Human; conditions: for IC50: Homo sapiens, 144 h, arithmetic mean of IC50s over the sensitive cohort of Table 3, 6 days growth, read-out: AvgSen IC50; for Fold Diff: average IC50 of resistant cohort divided by average IC50 of sensitive cohort
Procedure: (§1) Cells were seeded at densities of 1,000-5,000 cells per well in 48-well tissue culture plates. After a 24 h rest period, cells were treated with compound at 10 μM, 1 μM, […], 0.08 μM, 0.016 μM, and 0.0032 μM. A group of cells were treated with the vehicle in which the compound was prepared and served as a control. Prior to treatment, cells were counted and this count was used as a baseline for the calculation of growth inhibition. The cells were grown in the presence of compounds for 6 days and were counted on day 6. All cell counting was performed using a Synentec Cellavista plate imager. Growth inhibition was calculated as a ratio of cell population doublings in the presence of compound versus the absence of compound. […] IC50 values for each compound were calculated by fitting curves to data points from each dose-response assay using the Proc NLIN function in SAS for Windows version 9.2 (SAS Institute, Inc.).
(§2) Human cancer cell lines were grouped as “sensitive” or “resistant” to MCL1 inhibition based on whether their growth was retarded by AMG-176 (i.e., (1′S,11R,12S,14E,16S,16aR,18aR)-6′-Chloro-3′,4′,12,13,16,16a,17,18,18a,19-decahydro-16-methoxy-11,12-dimethyl-,Spiro[5,7-etheno-1H,11H-cyclobut[i][1,4]oxazepino[3,4-f][1,2,7]thiadiazacyclohexadecine-2(3H),1′(2′H)-naphthalen]-8(9H)-one 10,10-dioxide) or MIK665 (i.e., (R)-2-((5-(3-chloro-2-methyl-4-(2-(4-methylpiperazin-1-yl)ethoxy)phenyl)-6-(4-fluorophenyl)thieno[2,3-d]pyrimidin-4-yl)oxy)-3-(2-((2-(2-methoxyphenyl)pyrimidin-4-yl)methoxy)phenyl)propanoic acid) (data not shown; see Table 3). These sensitive and resistant cohorts were interrogated for response to each compound, and IC50S were calculated for each cell line using the same technique described above. Average IC50S for the sensitive (“AvgSen IC50”) and resistant (“AvgRes IC50”) cohorts were calculated as arithmetic means of the group, and fold differences (“Fold Diff”) between the resistant and sensitive cohorts were calculated by diving the average IC50 for the resistant cohort by the average IC50 for the sensitive cohort. “A” represents an IC50 of 1 μM or less, “B” represents an IC50 of greater than 1 μM to 5 μM, “C” represents an IC50 of greater than 5 μM, “+” represents a fold difference of 10 or more, and “−” represents a fold difference less than 10.

[3] = system: drug-resistant cell lines of Table 3; test: Cell line growth retardation assay, resistant cohort; assay type: cell-based, Human; conditions: Homo sapiens, 144 h; arithmetic mean of IC50s over the resistant cohort of Table 3, 6 days growth; read-out: AvgRes IC50
Procedure: as §1, §2

MCL1, sequence (Q07820 whole entry): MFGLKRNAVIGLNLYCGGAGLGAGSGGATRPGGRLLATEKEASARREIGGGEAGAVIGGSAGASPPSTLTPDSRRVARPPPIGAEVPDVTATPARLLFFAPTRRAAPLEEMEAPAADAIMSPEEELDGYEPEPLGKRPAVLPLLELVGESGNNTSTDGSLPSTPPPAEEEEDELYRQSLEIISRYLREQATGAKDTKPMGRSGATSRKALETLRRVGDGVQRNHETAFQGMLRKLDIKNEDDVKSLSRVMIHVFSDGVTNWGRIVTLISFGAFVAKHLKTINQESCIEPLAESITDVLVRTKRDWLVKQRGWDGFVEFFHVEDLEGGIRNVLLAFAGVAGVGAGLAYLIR

Kd [1]	Compound	IC50 [2]	Fold Diff [2]	IC50 [3]
≤ 0.1 µM	COc1ccccc1-c1nccc(COc2ccccc2C[C@@H](Oc2nsc3cnc(-c4cccc(F)c4)c(-c4ccc(OCCN5CCN(C)CC5)c(Cl)c4C)c23)C(=O)O)n1 (atropisomer, axis not shown) [Compound 35]	≤ 1 µM	+ (“+” represents a fold difference of 10 or more)	> 5 µM
0.101 to 0.5 µM	COc1cccc(Oc2ccc(-c3nccc(COc4ccccc4C[C@@H](Oc4nsc5cnc(C6CCC6)c(-c6ccc(OCCN7CCN(C)CC7)c(Cl)c6C)c45)C(=O)O)n3)cn2)c1 (atropisomer, axis not shown) [Compound 114]	1 to 5 µM	− (“−” represents a fold difference less than 10)	> 5 µM
≤ 0.1 µM	COc1ccccc1-c1nccc(COc2ccccc2C[C@@H](Oc2nsc3cnc(-c4cnc(C5CC5)o4)c(-c4ccc(OCCN5CCN(C)CC5)c(Cl)c4C)c23)C(=O)O)n1 (atropisomer, axis not shown) [Compound 78]	1 to 5 µM	− (“−” represents a fold difference less than 10)	> 5 µM
≤ 0.1 µM	CCOc1cc(-c2ncc3snc(O[C@H](Cc4ccccc4OCc4ccnc(-c5ccccc5OC)n4)C(=O)O)c3c2-c2ccc(OCCN3CCN(C)CC3)c(Cl)c2C)ccn1 (atropisomer, axis not shown) [Compound 32]	≤ 1 µM	+ (“+” represents a fold difference of 10 or more)	> 5 µM
≤ 0.1 µM	COc1cc(-c2ncc3snc(O[C@H](Cc4ccccc4OCc4ccnc(-c5ccccc5OC)n4)C(=O)O)c3c2-c2ccc(OCCN3CCN(C)CC3)c(Cl)c2C)ccn1 (atropisomer, axis not shown) [Compound 33]	≤ 1 µM	+ (“+” represents a fold difference of 10 or more)	> 5 µM
≤ 0.1 µM	COc1ccccc1-c1nccc(COc2ccccc2C[C@@H](Oc2nsc3cnc(C4CCC4)c(-c4ccc(OCCN5CCN(C)CC5)c(Cl)c4C)c23)C(=O)O)n1 (atropisomer, axis not shown) [Compound 36]	≤ 1 µM	+ (“+” represents a fold difference of 10 or more)	> 5 µM
≤ 0.1 µM	COc1cccc(-c2ncc3snc(O[C@H](Cc4ccccc4OCc4ccnc(-c5ccccc5S(C)(=O)=O)n4)C(=O)O)c3c2-c2ccc(OCCN3CCN(C)CC3)c(Cl)c2C)c1 (atropisomer, axis not shown) [Compound 68]	1 to 5 µM	− (“−” represents a fold difference less than 10)	> 5 µM
0.501 to 1.5 µM	COc1ccccc1-c1nccc(COc2ccccc2C[C@@H](Oc2nsc3cnc(-c4cnn(CC(C)C)c4)c(-c4ccc(OCCN5CCN(C)CC5)c(Cl)c4C)c23)C(=O)O)n1 (atropisomer, axis not shown) [Compound 79]	≤ 1 µM	− (“−” represents a fold difference less than 10)	1 to 5 µM
0.501 to 1.5 µM	COc1ccccc1-c1nccc(COc2ccccc2C[C@@H](Oc2nsc3cnc(-c4ccc(F)cc4C)c(-c4ccc(OCCN5CCN(C)CC5)c(Cl)c4C)c23)C(=O)O)n1 (atropisomer, axis not shown) [Compound 86]	1 to 5 µM	− (“−” represents a fold difference less than 10)	> 5 µM
≤ 0.1 µM	CCOc1cccc(-c2ncc3snc(O[C@H](Cc4ccccc4OCc4ccnc(-c5ccccc5OC)n4)C(=O)O)c3c2-c2ccc(OCCN3CCN(C)CC3)c(Cl)c2C)c1 (atropisomer, axis not shown) [Compound 87]	≤ 1 µM	+ (“+” represents a fold difference of 10 or more)	> 5 µM

More lines, now with the values behind:

Compound	Kd [1]	IC50 [2]	Fold Diff [2]	IC50 [3]
COc1ccccc1-c1nccc(COc2ccccc2C[C@@H](Oc2nsc3cc(-c4nn(C)c5cc(Cl)ccc45)cc(-c4ccc(OCCN5CCN(C)CC5)c(Cl)c4C)c23)C(=O)O)n1 [Compound 97]	0.501 to 1.5 µM	1 to 5 µM	− (“−” represents a fold difference less than 10)	> 5 µM
COc1ccccc1-c1nccc(COc2ccccc2C[C@@H](Oc2nsc3cnc(-c4cccc(F)c4)c(-c4ccc(OCCN(C)C)c(Cl)c4C)c23)C(=O)O)n1 (atropisomer, axis not shown) [Compound 55]	≤ 0.1 µM	≤ 1 µM	+ (“+” represents a fold difference of 10 or more)	> 5 µM
Cc1cc(C#N)ccc1-c1nccc(COc2ccccc2C[C@@H](Oc2nsc3cnc(C4CCC4)c(-c4ccc(OCCN5CCN(C)CC5)c(Cl)c4C)c23)C(=O)O)n1 (atropisomer, axis not shown) [Compound 116]	≤ 0.1 µM	≤ 1 µM	+ (“+” represents a fold difference of 10 or more)	> 5 µM
Cc1c(-c2c(C3CCC3)ncc3snc(O[C@H](Cc4ccccc4OCc4ccnc(-c5cccc(OC(F)(F)F)c5)n4)C(=O)O)c23)ccc(OCCN2CCN(C)CC2)c1Cl (atropisomer, axis not shown) [Compound 117]	0.101 to 0.5 µM	1 to 5 µM	− (“−” represents a fold difference less than 10)	> 5 µM
COc1cccc(-c2ncc3snc(O[C@H](Cc4ccccc4OCc4ccnc(N5CCC(OC(F)F)CC5)n4)C(=O)O)c3c2-c2ccc(OCCN3CCN(C)CC3)c(Cl)c2C)c1 (atropisomer, axis not shown) [Compound 63]	0.501 to 1.5 µM	1 to 5 µM	− (“−” represents a fold difference less than 10)	> 5 µM
Cc1c(Cl)c2cc(Cl)cnc2n1-c1cc(CC2CCC2)c2c(O[C@H](Cc3ccccc3OCc3ccnn3CC(F)(F)F)C(=O)O)nsc2c1 [Compound 101]	> 1.5 µM	> 5 µM	− (“−” represents a fold difference less than 10)	> 5 µM
Cc1c(-c2c(C3CCC3)ncc3snc(O[C@H](Cc4ccccc4OCc4ccnc(C5CCOCC5)n4)C(=O)O)c23)ccc(OCCN2CCN(C)CC2)c1Cl (atropisomer, axis not shown) [Compound 111]	≤ 0.1 µM	≤ 1 µM	+ (“+” represents a fold difference of 10 or more)	> 5 µM
Cc1c(-c2c(C3CCC3)ncc3snc(O[C@H](Cc4ccccc4OCc4ccnc(-c5ccncc5)n4)C(=O)O)c23)ccc(OCCN2CCN(C)CC2)c1Cl (atropisomer, axis not shown) [Compound 74]	> 1.5 µM	> 5 µM	− (“−” represents a fold difference less than 10)	> 5 µM
CC(=O)N1CCN(c2ccc(-c3nccc(COc4ccccc4C[C@@H](Oc4nsc5cnc(C6CCC6)c(-c6ccc(OCCN7CCN(C)CC7)c(Cl)c6C)c45)C(=O)O)n3)cc2)CC1 (atropisomer, axis not shown) [Compound 119]	≤ 0.1 µM	≤ 1 µM	+ (“+” represents a fold difference of 10 or more)	> 5 µM
COc1ccccc1-c1nccc(COc2ccccc2C[C@@H](Oc2nsc3cnc(C4CCC4)c(-c4ccc(OC)c(Cl)c4C)c23)C(=O)OCc2oc(=O)oc2C)n1 (atropisomer, axis not shown) [Compound 106]	0.101 to 0.5 µM	1 to 5 µM	− (“−” represents a fold difference less than 10)	> 5 µM
